The record followed here is ChEMBL document CHEMBL4219122, “Synthesis and biological evaluation of histone deacetylase and DNA topoisomerase II-Targeted inhibitors” (Bioorg Med Chem, 2018).

Activity calls are given as the source filed them. The calls are words filed in the database; no cut-off is given here.

The target of assay [1] is T1, Histone deacetylase 1 (Homo sapiens, UniProt Q13547). Description: Inhibition of recombinant human HDAC1 expressed in HEK293T cells using Ac-KGLGK(Ac)-MCA as substrate after 30 mins in presence of DTT by fluorescence assay.
Assay [2] deals with T2, Protein deacetylase HDAC6 (Mus musculus, UniProt Q9Z2V5).
T2 sequence (Q9Z2V5 whole entry): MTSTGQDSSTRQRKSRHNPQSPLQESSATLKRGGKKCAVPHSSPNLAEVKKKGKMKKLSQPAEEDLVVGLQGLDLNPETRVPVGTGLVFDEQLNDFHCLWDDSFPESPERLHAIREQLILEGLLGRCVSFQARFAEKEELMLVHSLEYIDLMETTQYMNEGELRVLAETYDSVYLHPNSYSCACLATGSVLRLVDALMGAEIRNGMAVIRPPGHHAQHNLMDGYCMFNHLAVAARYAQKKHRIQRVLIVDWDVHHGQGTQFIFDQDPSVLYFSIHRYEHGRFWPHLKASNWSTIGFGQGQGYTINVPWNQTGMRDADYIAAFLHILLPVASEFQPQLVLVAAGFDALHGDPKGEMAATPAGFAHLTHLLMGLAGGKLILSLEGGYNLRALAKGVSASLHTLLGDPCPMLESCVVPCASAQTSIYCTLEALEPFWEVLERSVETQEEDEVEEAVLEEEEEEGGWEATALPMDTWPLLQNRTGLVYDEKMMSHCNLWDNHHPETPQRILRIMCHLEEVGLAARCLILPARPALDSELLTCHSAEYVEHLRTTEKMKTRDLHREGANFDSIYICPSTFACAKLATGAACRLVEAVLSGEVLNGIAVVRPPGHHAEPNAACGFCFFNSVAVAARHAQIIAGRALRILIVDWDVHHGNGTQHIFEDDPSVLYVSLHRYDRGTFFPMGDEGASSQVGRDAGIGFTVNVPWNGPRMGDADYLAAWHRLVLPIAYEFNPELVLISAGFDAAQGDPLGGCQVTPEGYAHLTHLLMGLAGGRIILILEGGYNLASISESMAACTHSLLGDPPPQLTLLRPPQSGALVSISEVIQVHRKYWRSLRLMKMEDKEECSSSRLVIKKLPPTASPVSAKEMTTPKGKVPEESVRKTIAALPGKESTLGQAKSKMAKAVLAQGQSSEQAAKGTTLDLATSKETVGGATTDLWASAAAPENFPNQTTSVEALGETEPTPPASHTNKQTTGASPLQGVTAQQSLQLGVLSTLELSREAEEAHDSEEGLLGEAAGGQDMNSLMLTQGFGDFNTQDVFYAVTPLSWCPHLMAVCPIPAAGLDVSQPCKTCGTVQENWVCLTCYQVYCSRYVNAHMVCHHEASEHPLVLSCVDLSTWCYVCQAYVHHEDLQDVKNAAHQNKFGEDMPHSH
The experiment in a line: Inhibition of recombinant mouse HDAC6 expressed in HEK293T cells co-expressing mouse HDA2 using Ac-KGLGK(Ac)-MCA as substrate after 30 mins in presence of DTT by fluorescence assay.

The next assay relates to MCF7. The experiment in a line: Growth inhibition of human MCF7 cells after 48 hrs by sulforhodamine B-based colorimetric assay. It is filed as functional, cell-based. Conditions: MCF7, 48 h; for GI50: read-out: GI50.
The test system of another assay is HCT-116. The experiment in a line: Growth inhibition of human HCT116 cells after 48 hrs by sulforhodamine B-based colorimetric assay. It is filed as functional, cell-based. Conditions: HCT-116, 48 h; for GI50: read-out: GI50.
A further assay relates to DU-145. The experiment in a line: Growth inhibition of human DU145 cells after 48 hrs by sulforhodamine B-based colorimetric assay. In kind it is functional, cell-based. Conditions: DU-145, 48 h; for GI50: read-out: GI50.
For assay [3], the target named is T3, DNA topoisomerase 2-alpha (Homo sapiens, UniProt P11388). Description: Inhibition of human placenta topoisomerase 2alpha assessed as reduction in pBR322 supercoiled DNA relaxation after 30 mins by ethidium bromide staining based agarose gel electrophoresis.
Assay [4] concerns the target T3, DNA topoisomerase 2-alpha. Description: Inhibition of human topoisomerase-2 alpha-mediated kinetoplast DNA decatenation at 200 uM after 30 mins by ethidium bromide staining based agarose gel electrophoresis.
Assay [5] deals with T1, Histone deacetylase 1. Description: Inhibition of recombinant human HDAC1 expressed in HEK293T cells at 10 uM using Ac-KGLGK(Ac)-MCA as substrate after 30 mins in presence of DTT by fluorescence assay.

T1 sequence (Q13547 whole entry): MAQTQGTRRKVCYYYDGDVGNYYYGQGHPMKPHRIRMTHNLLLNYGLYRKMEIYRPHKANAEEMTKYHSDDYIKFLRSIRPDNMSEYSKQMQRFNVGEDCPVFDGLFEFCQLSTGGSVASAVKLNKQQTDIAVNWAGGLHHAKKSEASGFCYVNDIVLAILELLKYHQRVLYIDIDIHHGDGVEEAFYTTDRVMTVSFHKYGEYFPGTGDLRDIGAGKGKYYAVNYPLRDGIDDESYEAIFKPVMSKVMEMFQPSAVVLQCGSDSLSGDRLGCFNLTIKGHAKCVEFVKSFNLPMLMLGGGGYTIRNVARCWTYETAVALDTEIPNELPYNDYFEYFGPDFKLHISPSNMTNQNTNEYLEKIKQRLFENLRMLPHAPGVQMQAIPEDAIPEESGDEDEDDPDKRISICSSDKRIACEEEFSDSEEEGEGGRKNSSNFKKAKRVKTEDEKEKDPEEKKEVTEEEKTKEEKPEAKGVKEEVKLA
T3 sequence (P11388 whole entry): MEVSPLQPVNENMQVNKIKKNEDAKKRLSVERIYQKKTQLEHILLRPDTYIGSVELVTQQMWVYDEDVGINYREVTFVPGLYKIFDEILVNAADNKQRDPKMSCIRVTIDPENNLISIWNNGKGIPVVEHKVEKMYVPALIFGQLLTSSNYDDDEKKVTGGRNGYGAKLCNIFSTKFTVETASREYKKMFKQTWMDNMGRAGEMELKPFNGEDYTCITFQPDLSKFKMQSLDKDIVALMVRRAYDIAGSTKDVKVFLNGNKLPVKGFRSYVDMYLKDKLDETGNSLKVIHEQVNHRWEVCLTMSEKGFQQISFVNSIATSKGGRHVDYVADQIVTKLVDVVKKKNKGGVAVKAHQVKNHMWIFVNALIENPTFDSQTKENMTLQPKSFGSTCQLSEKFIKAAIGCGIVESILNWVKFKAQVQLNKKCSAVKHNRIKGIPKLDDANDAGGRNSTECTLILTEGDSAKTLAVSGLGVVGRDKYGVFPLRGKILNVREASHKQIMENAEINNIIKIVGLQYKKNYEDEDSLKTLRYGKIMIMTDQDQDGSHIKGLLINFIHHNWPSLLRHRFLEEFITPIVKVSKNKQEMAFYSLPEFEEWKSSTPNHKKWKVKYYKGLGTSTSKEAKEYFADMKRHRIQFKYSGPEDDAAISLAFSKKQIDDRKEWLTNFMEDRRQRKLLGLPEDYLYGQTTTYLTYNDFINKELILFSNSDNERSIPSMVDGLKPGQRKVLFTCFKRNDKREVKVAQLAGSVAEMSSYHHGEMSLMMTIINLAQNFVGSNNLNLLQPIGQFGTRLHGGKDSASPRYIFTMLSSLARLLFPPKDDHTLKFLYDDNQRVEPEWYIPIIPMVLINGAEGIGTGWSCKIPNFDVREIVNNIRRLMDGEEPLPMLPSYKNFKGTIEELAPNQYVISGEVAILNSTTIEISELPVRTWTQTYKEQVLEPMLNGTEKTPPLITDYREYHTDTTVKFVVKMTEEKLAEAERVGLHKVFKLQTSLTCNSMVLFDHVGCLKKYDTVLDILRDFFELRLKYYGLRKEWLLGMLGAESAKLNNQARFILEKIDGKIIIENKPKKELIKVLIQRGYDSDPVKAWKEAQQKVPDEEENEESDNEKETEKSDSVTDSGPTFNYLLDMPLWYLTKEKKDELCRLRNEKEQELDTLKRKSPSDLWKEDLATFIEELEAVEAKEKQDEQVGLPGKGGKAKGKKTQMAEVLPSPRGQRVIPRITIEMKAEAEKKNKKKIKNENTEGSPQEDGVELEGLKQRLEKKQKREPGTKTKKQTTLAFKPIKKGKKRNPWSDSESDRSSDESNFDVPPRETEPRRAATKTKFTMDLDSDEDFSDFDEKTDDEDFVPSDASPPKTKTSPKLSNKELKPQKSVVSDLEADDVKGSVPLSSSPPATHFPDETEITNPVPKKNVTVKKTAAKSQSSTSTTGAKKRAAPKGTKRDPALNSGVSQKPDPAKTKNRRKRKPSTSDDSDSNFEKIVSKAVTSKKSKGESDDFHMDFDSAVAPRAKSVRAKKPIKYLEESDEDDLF

With `Cc1cn([C@H]2C[C@H](C3(c4ccc(NC(=O)CCCCC(=O)NO)cc4)SCCCS3)[C@@H](CO[Si](C)(C)C(C)(C)C)O2)c(=O)[nH]c1=O`, the IC50 at Histone deacetylase 1 [1] is 2.5 µM; in assay [2], 0.56 µM. Besides, the GI50 with MCF7 worked out at 5.5 µM; in the assay on HCT-116, 26.3 µM; with DU-145, 14.8 µM.
In the case of `COc1ccc(C2([C@H]3CC(=O)O[C@@H]3CO[Si](C)(C)C(C)(C)C)SCCCS2)cc1OC`, in assay [3], the 50% inhibitory concentration (IC50) is 55.3 µM.
For `Cc1cn([C@H]2C[C@H](C3(c4ccc(NC(=O)CCCCCC(=O)NO)cc4)SCCCS3)[C@@H](CO[Si](C)(C)C(C)(C)C)O2)c(=O)[nH]c1=O`, the IC50 at Histone deacetylase 1 [1] turned out to be 0.9 µM; in assay [2], 0.11 µM. The 50% growth inhibitory concentration (GI50) with MCF7 is 15.4 µM; with HCT-116, 17.4 µM; in the assay on DU-145 it was 20.9 µM.
Consider `Cc1cn([C@@H]2C[C@H](C3(c4ccc(NC(=O)CCCCC(=O)NO)cc4)SCCCS3)[C@@H](CO[Si](C)(C)C(C)(C)C)O2)c(=O)[nH]c1=O`, for which the results for the IC50 (on Histone deacetylase 1 [1]; in assay [2]) were 2.8 µM and 0.59 µM, respectively. Besides, the results for the GI50 in the assay with MCF7, with HCT-116 and in the assay with DU-145 were 5.37 µM, 26.3 µM and 49 µM, respectively.
With `CC(/C=C/C(=O)NO)=C\C(C)C(=O)c1ccc(C2([C@H]3CC(=O)O[C@@H]3CO[Si](C)(C)C(C)(C)C)SCCCS2)cc1` (stereo not given in full), the half-maximal inhibitory concentration (IC50) in assay [3] came out at 3 µM; at Histone deacetylase 1 [1], 1.2 µM.
Take `CC(C)(C)[Si](C)(C)OC[C@H]1OC(=O)C[C@@H]1C1(c2ccccc2)SCCCS1`: in assay [3], the IC50 amounted to 26.1 µM.
As for `COc1cc([C@@H]2c3cc4c(cc3[C@@H](O[C@@H]3O[C@@H]5CO[C@@H](C)O[C@H]5[C@H](O)[C@H]3O)[C@H]3COC(=O)[C@H]23)OCO4)cc(OC)c1O`, in assay [4], the inhibition entry is “Active”.
Turning to `COc1ccc(C2([C@H]3C[C@H](n4cc(C)c(=O)[nH]c4=O)O[C@@H]3CO[Si](C)(C)C(C)(C)C)SCCCS2)cc1OC`, the half-inhibitory concentration (IC50) in assay [3] is 19.1 µM; at Histone deacetylase 1 [1], over 10 µM; in assay [2], over 10 µM. For the same molecule, the values for the GI50 in the assay with MCF7, in the assay with HCT-116 and with DU-145 were 3.31 µM, 3.63 µM and 3.72 µM, respectively.
As to `Cc1cn([C@@H]2C[C@H](C3(c4ccc(NC(=O)CCCCCC(=O)NO)cc4)SCCCS3)[C@@H](CO[Si](C)(C)C(C)(C)C)O2)c(=O)[nH]c1=O`, the IC50 at Histone deacetylase 1 [1] turned out to be 0.59 µM; in assay [2], 0.081 µM. Moreover, the GI50 stood at 17.8 µM in the assay with MCF7, 14.8 µM in the assay with HCT-116 and 28.8 µM in the assay on DU-145.
`Cc1cn([C@H]2C[C@H](C3(c4ccc(NC(=O)CCCCCCC(=O)O)cc4)SCCCS3)[C@@H](CO[Si](C)(C)C(C)(C)C)O2)c(=O)[nH]c1=O`: the IC50 was 12.3 µM in the assay with MCF7, 12.3 µM with HCT-116 and 15.5 µM in the assay on DU-145. Further, the inhibition result on Histone deacetylase 1 [5] is “inactive”.
